Source: PubChem BioAssay AID1845210 (Molecular Pharmacology Branch, DTP, NCI, 2023)

System: NCI-H226 complex tumor spheroids, viability
Assay: Anticancer human tumor NCI-H226 cell line growth inhibition;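 also: spheroids exposed to compound for 7 days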;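 as to viability, T/C: 100% = DMSO vehicle control viability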
Details: for IC50: curve of first compound; for viability, T/C: stronger effect = lower value
How it was run: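 Complex tumor spheroids combined malignant cells with endothelial cells and mesenchymal stem cells. DNA-damaging drugs and DNA repair inhibitors were tested alone and in combination, at half-log dilutions down from clinical Cmax (top 10 microM if Cmax unknown), 0.25% DMSO final.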

[1] = second compound 1 µM, first compound 0.0316 µM
[2] = second compound 1 µM, first compound 0.1 µM
[3] = second compound 1 µM, first compound 0.316 µM
[4] = second compound 1 µM, first compound 1 µM
[5] = second compound 1 µM, first compound 3.16 µM
[6] = second compound 1 µM, first compound 10 µM
[7] = second compound 3.16 µM, first compound 0.0316 µM
[8] = second compound 3.16 µM, first compound 0.1 µM
[9] = second compound 3.16 µM, first compound 0.316 µM
[10] = second compound 3.16 µM, first compound 1 µM
[11] = second compound 3.16 µM, first compound 3.16 µM
[12] = second compound 3.16 µM, first compound 10 µM
[13] = second compound 10 µM, first compound 0.0316 µM
[14] = second compound 10 µM, first compound 0.1 µM
[15] = second compound 10 µM, first compound 0.316 µM
[16] = second compound 10 µM, first compound 1 µM
[17] = second compound 10 µM, first compound 3.16 µM
[18] = second compound 10 µM, first compound 10 µM
[19] = second compound 31.6 µM, first compound 0.0316 µM
[20] = second compound 31.6 µM, first compound 0.1 µM
[21] = second compound 31.6 µM, first compound 0.316 µM
[22] = second compound 31.6 µM, first compound 1 µM
[23] = second compound 31.6 µM, first compound 3.16 µM
[24] = second compound 31.6 µM, first compound 10 µM
[25] = second compound 100 µM, first compound 0.0316 µM
[26] = second compound 100 µM, first compound 0.1 µM
[27] = second compound 100 µM, first compound 0.316 µM
[28] = second compound 100 µM, first compound 1 µM
[29] = second compound 100 µM, first compound 3.16 µM
[30] = second compound 100 µM, first compound 10 µM

Structure (SMILES) | IC50 (second compound 1 µM) [µM] | IC50 (second compound 3.16 µM) [µM] | IC50 (second compound 10 µM) [µM] | IC50 (second compound 31.6 µM) [µM] | IC50 (second compound 100 µM) [µM] | viability, T/C [1] [%] | viability, T/C [2] [%] | viability, T/C [3] [%] | viability, T/C [4] [%] | viability, T/C [5] [%] | viability, T/C [6] [%] | viability, T/C [7] [%] | viability, T/C [8] [%] | viability, T/C [9] [%] | viability, T/C [10] [%] | viability, T/C [11] [%] | viability, T/C [12] [%] | viability, T/C [13] [%] | viability, T/C [14] [%] | viability, T/C [15] [%] | other results
[2H]c1nc(C)nc([2H])c1-c1cc(NC[C@@H](C)c2cccc3c(C(=O)NC)ccnc23)ncn1 + Cn1nnc2c(C(N)=O)ncn2c1=O | > 10 | > 10 | > 10 | > 10 | > 10 | 115 | 107 | 118 | 112 | 114 | 121 | 114 | 114 | 113 | 101 | 123 | 122 | 112 | 122 | 115 | viability, T/C [16]: 110%; viability, T/C [17]: 113%; viability, T/C [18]: 115%; viability, T/C [19]: 103%; viability, T/C [20]: 102%; viability, T/C [21]: 119%; viability, T/C [22]: 120%; viability, T/C [23]: 123%; viability, T/C [24]: 116%; viability, T/C [25]: 141%; viability, T/C [26]: 129%; viability, T/C [27]: 112%; viability, T/C [28]: 116%; viability, T/C [29]: 117%; viability, T/C [30]: 121%
COc1cc(C)[nH]c(=O)c1CN1CCc2c(Cl)cc(C(OC)C3COC3)c(Cl)c2C1=O (stereo not given) + Cn1nnc2c(C(N)=O)ncn2c1=O | > 10 | > 10 | > 10 | > 10 | > 10 | 133 | 131 | 130 | 133 | 129 | 132 | 117 | 138 | 124 | 121 | 136 | 108 | 132 | 128 | 125 | viability, T/C [16]: 136%; viability, T/C [17]: 128%; viability, T/C [18]: 127%; viability, T/C [19]: 124%; viability, T/C [20]: 144%; viability, T/C [21]: 132%; viability, T/C [22]: 125%; viability, T/C [23]: 135%; viability, T/C [24]: 145%; viability, T/C [25]: 118%; viability, T/C [26]: 132%; viability, T/C [27]: 136%; viability, T/C [28]: 146%; viability, T/C [29]: 137%; viability, T/C [30]: 150%
